Reference: patent US6544521B2, “Immunoreactive peptide CTL epitopes of human cytomegalovirus pp150” (City of Hope, priority 2000, dated 2003)

Test system: pp150-specific T cell clones
Experiment: Chromium release assay with peptide-sensitized EBVLCL and pp150-specific CTL clones (epitope mapping)
Type: cell-based, human
Details: persons having the indicated HLA allele; target cells sensitized with peptide at 50 μM

Sequence	Number of Individuals Tested
QTVTSTPVQGR (listed as Human cytomegalovirus) [SEQ ID NO: 2]	2/2
TTVYPPSSTAK (listed as Human cytomegalovirus) [SEQ ID NO: 1]	2/2
